According to ChEMBL document CHEMBL1201862, “PubChem BioAssay data set” (2004):
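1) Cells in 96-well plates. 2) Compound, 48 h, 5 concentrations. 3) Linear interpolation between surrounding doses. 4) Unreached endpoint = highest concentration. The concentration for 50% growth inhibition is given as GI50.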 The source made the active and inactive calls. Cut-off read from the data, not from the text of the source: active = GI50 up to about 1.1 µM and inactive = higher.

Key:
Assay in all cases: growth of human tumour cells (NCI), 48 h
UO-31 = tested on: UO-31
SF-268 = tested on: SF-268
786-0 = tested on: 786-0
RPMI-8226 = tested on: RPMI-8226
NCI-H460 = tested on: NCI-H460
NCI/ADR-RES = tested on: NCI/ADR-RES
IGROV-1 = tested on: IGROV-1
BT-549 = tested on: BT-549
SNB-75 = tested on: SNB-75
MDA-MB-231 = tested on: MDA-MB-231
SK-MEL-28 = tested on: SK-MEL-28
SK-MEL-5 = tested on: SK-MEL-5
MDA-N = tested on: MDA-N
A498 = tested on: A498
UACC-257 = tested on: UACC-257
HOP-62 = tested on: HOP-62
SF-295 = tested on: SF-295
OVCAR-3 = tested on: OVCAR-3
U-251 = tested on: U-251
TK-10 = tested on: TK-10
HT-29 = tested on: HT-29
HCT-116 = tested on: HCT-116
NCI-H226 = tested on: NCI-H226
A549 = tested on: A549
UACC-62 = tested on: UACC-62
MDA-MB-435 = tested on: MDA-MB-435
COLO 205 = tested on: COLO 205
K562 = tested on: K562
SW-620 = tested on: SW-620
SK-OV-3 = tested on: SK-OV-3
SN12C = tested on: SN12C
RXF 393 = tested on: RXF 393
OVCAR-4 = tested on: OVCAR-4
EKVX = tested on: EKVX
HCT-15 = tested on: HCT-15
MOLT-4 = tested on: MOLT-4
HCC 2998 = tested on: HCC 2998
CCRF-CEM = tested on: CCRF-CEM
NCI-H23 = tested on: NCI-H23
SNB-19 = tested on: SNB-19
ACHN = tested on: ACHN
PC-3 = tested on: PC-3
T47D = tested on: T47D
OVCAR-8 = tested on: OVCAR-8
Hs-578T = tested on: Hs-578T
CAKI-1 = tested on: CAKI-1
HL-60 = tested on: HL-60
M14 = tested on: M14
NCI-H522 = tested on: NCI-H522
LOX IMVI = tested on: LOX IMVI
OVCAR-5 = tested on: OVCAR-5
MCF7 = tested on: MCF7
SR = tested on: SR
DU-145 = tested on: DU-145
HOP-92 = tested on: HOP-92
KM12 = tested on: KM12
SF-539 = tested on: SF-539
Malme-3M = tested on: Malme-3M
SK-MEL-2 = tested on: SK-MEL-2

Measured: GI50

CC1(C)CCCC2OC2CCC(C)(C)C1=O (stereo not drawn)
> 100 µM: HCT-15
inactive: UO-31 > 100 µM | SF-268 > 100 µM | 786-0 > 100 µM | RPMI-8226 > 100 µM | NCI-H460 > 100 µM | NCI/ADR-RES > 100 µM | IGROV-1 > 100 µM | BT-549 > 100 µM | SNB-75 > 100 µM | MDA-MB-231 > 100 µM | SK-MEL-28 > 100 µM | SK-MEL-5 > 100 µM | MDA-N > 100 µM | A498 > 100 µM | UACC-257 > 100 µM | HOP-62 > 100 µM | SF-295 > 100 µM | OVCAR-3 > 100 µM | U-251 > 100 µM | TK-10 > 100 µM | HT-29 > 100 µM | HCT-116 > 100 µM | NCI-H226 > 100 µM | A549 > 100 µM | UACC-62 > 100 µM | MDA-MB-435 > 100 µM | COLO 205 > 100 µM | K562 > 100 µM | SW-620 > 100 µM | SK-OV-3 > 100 µM | SN12C > 100 µM | RXF 393 > 100 µM | OVCAR-4 > 100 µM | EKVX > 100 µM | MOLT-4 > 100 µM | HCC 2998 > 100 µM | CCRF-CEM > 100 µM | NCI-H23 > 100 µM | SNB-19 > 100 µM | ACHN > 100 µM | PC-3 > 100 µM | T47D > 100 µM | OVCAR-8 > 100 µM | Hs-578T > 100 µM | CAKI-1 > 100 µM | HL-60 > 100 µM | M14 > 100 µM | NCI-H522 > 100 µM | LOX IMVI > 100 µM | OVCAR-5 > 100 µM | MCF7 > 100 µM | SR > 100 µM | DU-145 > 100 µM | HOP-92 > 100 µM | KM12 > 100 µM | SF-539 > 100 µM | Malme-3M > 100 µM | SK-MEL-2 > 100 µM

C[C@@H](CC(=O)OCc1ccccc1)OC1OC(COC(=O)C(C)(C)C)C(OC(=O)C(C)(C)C)C(OC(=O)C(C)(C)C)C1OC(=O)C(C)(C)C (stereo partly drawn)
> 100 µM: HCT-15
inactive: UO-31 > 100 µM | SF-268 > 100 µM | 786-0 > 100 µM | RPMI-8226 > 100 µM | NCI-H460 > 100 µM | NCI/ADR-RES > 100 µM | IGROV-1 > 100 µM | BT-549 > 100 µM | SNB-75 > 100 µM | MDA-MB-231 > 100 µM | SK-MEL-28 > 100 µM | SK-MEL-5 5.28 µM | MDA-N 36 µM | A498 > 100 µM | UACC-257 > 100 µM | HOP-62 > 100 µM | SF-295 > 100 µM | OVCAR-3 > 100 µM | U-251 > 100 µM | TK-10 > 100 µM | HT-29 > 100 µM | HCT-116 > 100 µM | NCI-H226 > 100 µM | A549 > 100 µM | UACC-62 > 100 µM | MDA-MB-435 > 100 µM | COLO 205 > 100 µM | K562 > 100 µM | SW-620 > 100 µM | SK-OV-3 > 100 µM | SN12C > 100 µM | RXF 393 > 100 µM | OVCAR-4 > 100 µM | EKVX > 100 µM | MOLT-4 94.4 µM | HCC 2998 > 100 µM | CCRF-CEM > 100 µM | NCI-H23 > 100 µM | SNB-19 > 100 µM | ACHN > 100 µM | PC-3 > 100 µM | T47D > 100 µM | OVCAR-8 > 100 µM | Hs-578T > 100 µM | CAKI-1 > 100 µM | HL-60 > 100 µM | M14 > 100 µM | NCI-H522 > 100 µM | LOX IMVI > 100 µM | OVCAR-5 > 100 µM | MCF7 > 100 µM | SR > 100 µM | DU-145 > 100 µM | HOP-92 > 100 µM | KM12 > 100 µM | SF-539 > 100 µM | Malme-3M > 100 µM | SK-MEL-2 > 100 µM
